For 15 compounds, IC50 results are on record in ChEMBL document CHEMBL3870316, “Design, synthesis and structure-activity relationships of novel 4-phenoxyquinoline derivatives containing 1,2,4-triazolone moiety as c-Met kinase inhibitors” (Eur J Med Chem, 2016).

Assay [1] is described as follows: Cytotoxicity against c-Met over-expressed human HT-29 cells assessed as cell growth inhibition after 72 hrs by MTT assay. The note with it: HT-29, 72 h.
A short description of assay [2]: Cytotoxicity against c-Met over-expressed human H460 cells assessed as cell growth inhibition after 72 hrs by MTT assay. The note with it: NCI-H460, 72 h. (Tetrazolium assays rely on reduction of a dye to a coloured formazan, in cell work by metabolically active cells.)
The nature of assay [3]: Cytotoxicity against c-Met over-expressed human MKN45 cells assessed as cell growth inhibition after 72 hrs by MTT assay. The conditions noted are these: MKN-45, 72 h.
Assay [4] is described as follows: Cytotoxicity against c-Met over-expressed human A549 cells assessed as cell growth inhibition after 72 hrs by MTT assay. The note with it: A549, 72 h.

The term IC50 denotes the concentration at which inhibition is half-maximal.

Take `COc1cc2c(Oc3ccc(NC(=O)c4nn(-c5cccc(F)c5)c(=O)n4C)cc3F)ccnc2cc1OCCCN1CCN(C)CC1`: the IC50 in assay [1] is 290 nM; in assay [2] it was 310 nM; in assay [3], 410 nM; in assay [4] it was 280 nM.
The matching figures for `COc1cc2c(Oc3ccc(NC(=O)c4nn(-c5ccccc5Cl)c(=O)n4C4CC4)cc3F)ccnc2cc1OCCCN1CCC(C)CC1`: 140 nM, 160 nM, 110 nM and 200 nM.
The matching figures for `COc1cc2c(Oc3ccc(NC(=O)c4nn(-c5ccccc5OC(F)(F)F)c(=O)n4C4CC4)cc3F)ccnc2cc1OCCCN1CCN(C)CC1`: 90 nM, 180 nM, 61 nM and 110 nM.
Consider `COc1cc2c(Oc3ccc(NC(=O)c4nn(-c5ccccc5)c(=O)n4C)cc3F)ccnc2cc1OCCCN1CCCCC1`, for which the IC50 turned out to be 870 nM in assay [1], 780 nM in assay [2], 460 nM in assay [3] and 450 nM in assay [4].
Regarding `COc1cc2c(Oc3ccc(NC(=O)c4nn(-c5ccc(F)cc5)c(=O)n4C)cc3F)ccnc2cc1OCCCN1CCN(C)CC1`, the IC50 in assay [1] turned out to be 250 nM; in assay [2], 370 nM; in assay [3], 350 nM; in assay [4], 240 nM.
For `CCn1c(C(=O)Nc2ccc(Oc3ccnc4cc(OCCCN5CCCCC5)c(OC)cc34)c(F)c2)nn(-c2ccccc2OC(F)(F)F)c1=O` the same measures were 190 nM, 250 nM, 120 nM and 190 nM.
The matching figures for `COc1ccc(-n2nc(C(=O)Nc3ccc(Oc4ccnc5cc(OCCCN6CCC(C)CC6)c(OC)cc45)c(F)c3)n(C)c2=O)cc1`: 1430 nM, 2400 nM, 590 nM and 620 nM.
The matching figures for `COc1cc2c(Oc3ccc(NC(=O)c4nn(-c5c(C)cccc5C)c(=O)n4C)cc3F)ccnc2cc1OCCCN1CCCCC1`: 1700 nM, 3010 nM, 1850 nM and 2000 nM.
Consider `COc1cc2c(Oc3ccc(NC(=O)c4nn(-c5ccccc5)c(=O)n4C)cc3F)ccnc2cc1OCCCN1CCCC1`, for which the IC50 worked out at 1450 nM in assay [1], 1300 nM in assay [2], 1160 nM in assay [3] and 990 nM in assay [4].
Consider `COc1cc2c(Oc3ccc(NC(=O)c4nn(-c5ccccc5F)c(=O)n4C)cc3F)ccnc2cc1OCCCN1CCC(C)CC1`, for which the IC50 in assay [1] amounted to 110 nM; in assay [2], 250 nM; in assay [3], 190 nM; in assay [4], 120 nM.
For `COc1ccc(-n2nc(C(=O)Nc3ccc(Oc4ccnc5cc(OCCCN6CCN(C)CC6)c(OC)cc45)c(F)c3)n(C)c2=O)cc1` the same measures were 1280 nM, 2140 nM, 1650 nM and 720 nM.
For `COc1cc2c(Oc3ccc(NC(=O)c4nn(-c5ccc(OC(F)F)cc5)c(=O)n4C)cc3F)ccnc2cc1OCCCN1CCN(C)CC1` the same measures were 220 nM, 290 nM, 140 nM and 290 nM.
The matching figures for `COc1cc2c(Oc3ccc(NC(=O)c4nn(-c5cccc(F)c5)c(=O)n4C)cc3F)ccnc2cc1OCCCN1CCC(C)CC1`: 400 nM, 290 nM, 200 nM and 440 nM.
Turning to `CCn1c(C(=O)Nc2ccc(Oc3ccnc4cc(OCCCN5CCN(C)CC5)c(OC)cc34)c(F)c2)nn(-c2ccccc2OC(F)(F)F)c1=O`, the IC50 in assay [1] came to 150 nM; in assay [2], 250 nM; in assay [3], 57 nM; in assay [4], 200 nM.
For `COc1cc2c(Oc3ccc(NC(=O)c4nn(-c5ccc(F)cc5)c(=O)n4C)cc3F)ccnc2cc1OCCCN1CCC(C)CC1` the same measures were 330 nM, 240 nM, 310 nM and 410 nM.
